# Laboratory results from article PMC8338929, “Acetylation turns leucine into a drug by membrane transporter switching” (Scientific Reports, 2021).
# “Also recorded” adds a separate entry of the source.
# Molecular target: T1, human PepT1 (SLC15A1) (Homo sapiens, UniProt P46059)
# T1 construct: host or cells: MDCK-II
# T1 sequence (P46059 1-708): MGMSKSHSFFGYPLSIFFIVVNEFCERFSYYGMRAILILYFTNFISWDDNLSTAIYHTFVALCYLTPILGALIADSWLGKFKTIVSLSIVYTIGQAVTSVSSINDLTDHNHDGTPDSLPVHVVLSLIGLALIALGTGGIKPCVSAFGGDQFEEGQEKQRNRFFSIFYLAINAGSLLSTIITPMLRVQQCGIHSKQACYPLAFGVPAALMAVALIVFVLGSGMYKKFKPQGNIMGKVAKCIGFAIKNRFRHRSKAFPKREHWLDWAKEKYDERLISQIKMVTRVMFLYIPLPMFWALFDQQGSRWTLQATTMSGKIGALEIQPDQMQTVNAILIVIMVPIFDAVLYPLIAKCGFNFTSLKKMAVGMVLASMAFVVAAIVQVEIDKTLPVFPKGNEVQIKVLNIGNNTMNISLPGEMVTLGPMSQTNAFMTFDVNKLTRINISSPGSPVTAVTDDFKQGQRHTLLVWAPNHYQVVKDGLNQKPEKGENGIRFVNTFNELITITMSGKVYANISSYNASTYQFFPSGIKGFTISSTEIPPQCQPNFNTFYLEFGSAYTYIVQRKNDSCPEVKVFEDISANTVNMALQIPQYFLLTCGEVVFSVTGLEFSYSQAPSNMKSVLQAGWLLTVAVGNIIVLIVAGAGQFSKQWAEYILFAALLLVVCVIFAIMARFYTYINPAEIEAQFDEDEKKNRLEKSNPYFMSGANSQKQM
# Assay: PepT1-mediated cellular uptake in transfected MDCK-II cells
# Assay type: cell-based
# Conditions: pH 5.5, 37 °C
# Method: Transport studies with human PepT1 (SLC15A1), LAT1 (SLC7A5) and MCT1 (SLC16A1) were conducted in MDCK-II cells expressing the human transporter or control cells expressing a vector with Green Fluorescence Protein. Cells were transfected using a proprietary, transient transfection system (OPTI-EXPRESSION Technology, BioIVT). The results from the control cells were used to correct for substrate permeation by routes other than the transporter being investigated in the study. […] Specifically, Net Transporter Mediated Substrate Uptake (pmol/min/cm^2) = (Cellular accumulation in the presence of the transporter) − (Mean cellular accumulation in the absence of the transporter). MDCK-II cells were maintained in DMEM with low glucose and 10% FBS. Cells were used at passages up to 40 were seeded at 60,000 ± 10,000 cells/well on 96-well plates approximately 24 h before transfection, and transport assays were performed approximately 48 h after transfection. […]
# Transport studies with PepT1 were conducted in 96-well cell culture plate with wells containing a monolayer of MDCK-II cells grown on a permeable support and a corresponding 96-well receiver tray. […] Then a 30-µL sample was taken and mixed with 200 µL of scintillation fluid and scintillation counted (1450 Microbeta, Perkin-Elmer). […]
smiles,measurement,value
CC(=O)N[C@@H](CC(C)C)C(=O)O [N-acetyl-L-leucine],substrate of PepT1 (uptake),not transported; also recorded: not a substrate
